In article PMC5021139 (Journal of Neuroendocrinology, 2016):
*1 amine or outer side, *2 acyl side, *3 side chain or, on linkers, in order; H or OH if unused. Where a SMILES comes first, the peptide text is derived from it. Bridges are numbered along the chain shown (N, C = ends). Where no end group is shown, it is not given here. X1 = O=C(CCC[*:2])[*:1]

How the values were obtained:
[1] = molecular target: T1, human oxytocin receptor (hOXTR) (Homo sapiens, UniProt P30559)
[2] = molecular target: T1, human oxytocin receptor (hOXTR); conditions: carbetocin vs oxytocin
[3] = cited from earlier work
[4] = molecular target: T1, human oxytocin receptor (hOXTR); experiment: cell-based; conditions: HEK293, read-out: maximal activation (BRETmax) relative to oxytocin
[5] = test system: aminopeptidase and disulphidase; conditions: cited from earlier work
[6] = test system: somatostatin receptor (SST2R); set-up: method as in PMID 25012983; conditions: functioning gastroenteropancreatic neuroendocrine tumours; cited from earlier work
OXTR = conditions: cited from earlier work
[7] = test system: human vasopressin V1a receptor (V1aR); experiment: BRET2 G-protein activation at V1aR in HEK293 cells; format: cell-based; conditions: 10 μM ligand, 2 min, Gq, Gi1, Gi2, Gi3, Go, minimum of three experiments
From the text: (A) V1aR or (B) V1bR were transfected together with GFP10‐Gγ2, Gβ1 and different Rluc8‐tagged Gα subunits: Gq, Gi1, Gi2, Gi3, Go.

[8] = test system: human vasopressin V1b receptor (V1bR); experiment: BRET2 G-protein activation at V1bR in HEK293 cells; conditions: 10 μM ligand, 2 min, Gq, Gi1, Gi2, Gi3, Go, minimum of three experiments
[9] = set-up: method as in PMID 6831225; conditions: cited from earlier work
[10] = set-up: method as in PMID 6831225; conditions: parenteral administration; cited from earlier work
[11] = molecular target: T2, human oxytocin receptor fused to Renilla luciferase (hOXTR‐Rluc) (human, UniProt P30559 1-389); experiment: FRET or BRET; kinetic BRET1 in HEK293 cells co-transfected with hOXTR-Rluc (donor) and β-arrestin1- or β-arrestin2-Venus (acceptor); cells in PBS with 0.1% glucose at room temperature; coelenterazine h added 8 min before oxytocin (10 μM); read in real time for 5 min; conditions: partners not purified
T2 construct: oxytocin receptor, human; Rluc introduced at the C-terminus; source: HEK293, transfected (PEI), in living cells; not shown: Rluc (Renilla luciferase), C-terminal, kept
T2 sequence (looked up): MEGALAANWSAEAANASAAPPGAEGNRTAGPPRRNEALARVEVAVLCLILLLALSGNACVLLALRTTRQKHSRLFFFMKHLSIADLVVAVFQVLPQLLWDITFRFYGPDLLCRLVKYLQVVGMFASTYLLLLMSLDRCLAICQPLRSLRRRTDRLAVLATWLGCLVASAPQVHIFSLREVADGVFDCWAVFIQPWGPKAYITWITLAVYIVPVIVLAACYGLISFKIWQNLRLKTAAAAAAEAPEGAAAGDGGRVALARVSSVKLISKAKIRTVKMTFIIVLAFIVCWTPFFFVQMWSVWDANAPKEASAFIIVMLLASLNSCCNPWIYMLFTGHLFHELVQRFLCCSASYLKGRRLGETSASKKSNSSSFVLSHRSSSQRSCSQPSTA

## carbetocin (deamino‐1‐monocarba‐(2‐O‐methyltyrosine)‐oxytocin) (peptide)
[1]
  EC50 of Gq activation (BRET2 between Gαq-Rluc8 and GFP10-Gγ2) in HEK293 cells expressing hOXTR, 10^-13 to 10^-5 M, 2 min: 48.8 nM
  maximal activation (BRETmax) of the Gq biosensor in HEK293 cells expressing hOXTR, against that of oxytocin (% of oxytocin): 45

## CC[C@H](C)[C@@H]1NC(=O)[C@H](Cc2ccc(OC)cc2)NC(=O)CCCSC[C@@H](C(=O)N2CCC[C@H]2C(=O)N[C@@H](CC(C)C)C(=O)NCC(N)=O)NC(=O)[C@H](CC(N)=O)NC(=O)[C@H](CCC(N)=O)NC1=O [carbetocin, deamino‐1‐monocarba‐(2‐O‐methyltyrosine)‐oxytocin] (Y(Me)IQNCPLG-NH2; linker N-5 via X1)
[2]
  reduction in maximal OXTR/Gq activation compared to oxytocin: 50%
[3]
  half-life in the peripheral circulation: 85 to 100 min
[4]
  Emax: 45 ± 6%
[5]
  protection from aminopeptidase degradation and disulphidase cleavage: very effective protection of carbetocin from aminopeptidase degradation and disulphidase cleavage

## octreotide
[6]
  antisecretory potency on long-term treatment: antisecretory potency decreased with long‐term treatment as a consequence of the persistent internalisation of SST2R

## atosiban
OXTR
  G-protein functional selectivity: a Gi3 functional selective agonists

## arginine vasopressin: neuropeptide arginine vasopressin, obtained from Bachem (CYFQNCPRG; not fully specified (C-terminus, bridges); cysteine pairing not given here; UniProt P01185 20-28, looked up)
[7]
  V1aR activation, all G-proteins tested: significantly promoted the coupling/activation
[8]
  V1bR activation, all G-proteins tested: significantly promoted the coupling/activation

## CC[C@H](C)[C@@H]1NC(=O)[C@H](Cc2ccc(O)cc2)NC(=O)[C@@H](N)CSSC[C@@H](C(=O)N2CCC[C@H]2C(=O)N[C@@H](CC(C)C)C(=O)NCC(N)=O)NC(=O)[C@H](CC(N)=O)NC(=O)[C@H](CCC(N)=O)NC1=O [oxytocin]
[3]
  half-life in the peripheral circulation: 3.4 min
  half-life in the plasma: short half‐life in the plasma
[9]
  half-life in the cerebrospinal fluid: short half‐life
[10]
  blood-brain barrier crossing: does not cross the blood–brain barrier in a significant amount

B1: β‐arrestin1‐Venus (natural protein, UniProt P49407 1-418, looked up)
chain: MGDKGTRVFKKASPNGKLTVYLGKRDFVDHIDLVDPVDGVVLVDPEYLKERRVYVTLTCAFRYGREDLDVLGLTFRKDLFVANVQSFPPAPEDKKPLTRLQERLIKKLGEHAYPFTFEIPPNLPCSVTLQPGPEDTGKACGVDYEVKAFCAENLEEKIHKRNSVRLVIRKVQYAPERPGPQPTAETTRQFLMSDKPLHLEASLDKEIYYHGEPISVNVHVTNNTNKTVKKIKISVRQYADICLFNTAQYKCPVAMEEADDTVAPSSTFCKVYTLTPFLANNREKRGLALDGKLKHEDTNLASSTLLREGANREILGIIVSYKVKVKLVVSRGGLLGDLASSDVAVELPFTLMHPKPKEEPPHREVPENETPVDTNLIELDTNDDDIVFEDFARQRLKGMKDDKEEEEDGTGSPQLNNR
notes: β-arrestin1; Venus (yellow variant of GFP) fused to its C-terminus; vector provided by Professor M. Locati; source: HEK293, transfected (PEI), in living cells; not shown: Venus, C-terminal, kept
[11]
  t1/2 of the oxytocin-induced increase of the BRET ratio: 1.98 min
